Data: ChEMBL document CHEMBL5370611, “Discovery of 4,5,6,7-Tetrahydropyrazolo[1.5-a]pyrizine Derivatives as Core Protein Allosteric Modulators (CpAMs) for the Inhibition of Hepatitis B Virus” (J Med Chem, 2023)
The source made the active and inactive calls. The rule behind the calls is not given here.

What was measured:
[1] = Resistance index, ratio of EC50 for wild type Hepatitis B virus to EC50 for Hepatitis B virus harboring A181T/N236T transfected in human HepG2 cells measured after 6 days by qPCR analysis; assay type: functional; settings: time 6 day
[2] = Resistance index, ratio of EC50 for wild type Hepatitis B virus to EC50 for Hepatitis B virus harboring A181V/N236T transfected in human HepG2 cells measured after 6 days by qPCR analysis; assay type: functional; settings: time 6 day
[3] = Resistance index, ratio of EC50 for wild type Hepatitis B virus to EC50 for Hepatitis B virus harboring A181T transfected in human HepG2 cells measured after 6 days by qPCR analysis; assay type: functional; settings: time 6 day
[4] = Resistance index, ratio of EC50 for wild type Hepatitis B virus to EC50 for Hepatitis B virus harboring A181V transfected in human HepG2 cells measured after 6 days by qPCR analysis; assay type: functional; settings: time 6 day
[5] = Resistance index, ratio of EC50 for wild type Hepatitis B virus to EC50 for Hepatitis B virus harboring N236T transfected in human HepG2 cells measured after 6 days by qPCR analysis; assay type: functional; settings: time 6 day
[6] = Resistance index, ratio of EC50 for wild type Hepatitis B virus to EC50 for Hepatitis B virus harboring L180M/M204 V/A194T transfected in human HepG2 cells measured after 6 days by qPCR analysis; assay type: functional; settings: time 6 day
[7] = Resistance index, ratio of EC50 for wild type Hepatitis B virus to EC50 for Hepatitis B virus harboring L180M/M204 V/S202G transfected in human HepG2 cells measured after 6 days by qPCR analysis; assay type: functional; settings: time 6 day
[8] = Resistance index, ratio of EC50 for wild type Hepatitis B virus to EC50 for Hepatitis B virus harboring L180M/M204 V/M250 V/[…] transfected in human HepG2 cells measured after 6 days by qPCR analysis; assay type: functional; settings: time 6 day
[9] = Resistance index, ratio of EC50 for wild type Hepatitis B virus to EC50 for Hepatitis B virus harboring L180M/M204 V/T184G/[…] transfected in human HepG2 cells measured after 6 days by qPCR analysis; assay type: functional; settings: time 6 day
[10] = Resistance index, ratio of EC50 for wild type Hepatitis B virus to EC50 for Hepatitis B virus harboring M204 V transfected in human HepG2 cells measured after 6 days by qPCR analysis; assay type: functional; settings: time 6 day
[11] = Resistance index, ratio of EC50 for wild type Hepatitis B virus to EC50 for Hepatitis B virus harboring L180M/M204V transfected in human HepG2 cells measured after 6 days by qPCR analysis; assay type: functional; settings: time 6 day
Hepatitis B virus [12] = test: Inhibition of HBV Cp150 dimer assembly assessed as formation of large abnormal particles at 20 uM incubated for 2 hrs by transmission electron microscopy
Hepatitis B virus [13] = test: Inhibition of HBV replication transfected in human HepG2.2.15 cells assessed as inhibition of encapsidated DNA formation in cell lysate incubated for 5 days by SDS-PAGE analysis; assay type: functional, organism-based; settings: dose <= 10.0 µM, time 5.0 day
Hepatitis B virus [14] = test: Inhibition of HBV replication transfected in human HepG2.2.15 cells assessed as assessed as induction of capsid degradation in cell lysate at upto 10 uM incubated for 5 days by SDS-PAGE analysis; assay type: functional, organism-based; settings: time 5.0 day
Hepatitis B virus [15] = test: Inhibition of HBV replication transfected in human HepG2.2.15 cells assessed as assessed as induction of total core protein degradation in cell lysate at upto 10 uM incubated for 5 days by SDS-PAGE analysis; assay type: functional, organism-based; settings: time 5.0 day

SMILES: C[C@H](Cn1cnc2c(N)ncnc21)OCP(=O)(O)O [TENOFOVIR ANHYDROUS]
- Ratio EC50 [1]: 3.3
- Ratio EC50 [2]: 3.8
- Ratio EC50 [3]: 0.9
- Ratio EC50 [4]: 1.5
- Ratio EC50 [5]: 3.3
- Ratio EC50 [6]: 4.3

SMILES: C=C1[C@H](CO)[C@@H](O)C[C@@H]1n1cnc2c(=O)[nH]c(N)nc21 [ENTECAVIR ANHYDROUS]
- Ratio EC50 [7]: 62.8
- Ratio EC50 [8]: 712.4
- Ratio EC50 [9]: 607.1

SMILES: Nc1ccn([C@@H]2CS[C@H](CO)O2)c(=O)n1 [LAMIVUDINE]
- Ratio EC50 [10]: 19
- Ratio EC50 [11]: >225
- Ratio EC50 [1]: 29
- Ratio EC50 [2]: 5.8

SMILES: COC(=O)C1=C(CN2CC(F)(F)C[C@H]2C(=O)O)NC(c2nccs2)=N[C@H]1c1ccc(F)cc1Cl
- Activity (Hepatitis B virus [12]): Active
- inhibition (Hepatitis B virus [13]): Dose-Dependent Effect
- inhibition (Hepatitis B virus [14]): Active
- inhibition (Hepatitis B virus [15]): Active
